For 27 molecules, TGI results are on record in PubChem BioAssay (NCI).

What all share (assay): growth of human tumour cells (NCI), 48 h
The subject of assay [1] is COLO 205 colon.
The subject of assay [2] is HL-60(TB) leukemia.
Assay [3] has as its system HT29 colon.
The subject of assay [4] is K-562 leukemia.
Assay [5] concerns M14 melanoma.
The test system of assay [6] is MOLT-4 leukemia.
In assay [7] the test system is SF-295 CNS.
Assay [8] deals with SK-MEL-5 melanoma.
Assay [9] deals with U251 CNS.
Assay [10] relates to BT-549 breast.
The test system of assay [11] is KM12 colon.
Assay [12] concerns T-47D breast.

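A five-concentration, 48-hour dose response in 96-well plates underlies each endpoint, interpolated linearly between surrounding concentrations. TGI denotes the concentration required for complete inhibition of growth.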

Turning to `O=C1c2ccccc2C(=O)N1C/C=N/NS(=O)(=O)c1ccc(Cl)cc1`, the TGI in assay [1], in assay [2], in assay [3], in assay [4], in [5] and in [6] was above 100 µM throughout. In addition, the TGI in assay [7], in assay [8] and in [9] was above 100 µM throughout.

`Cc1ccc(-c2n[nH]c(CC#N)n2)cc1`: the TGI in assay [10], in assay [1], in assay [2], in [3], in assay [4] and in assay [11] was above 100 µM each time. In addition, the TGI in assay [5], in [6], in assay [7], in assay [8], in assay [12] and in [9] was above 100 µM each time.

For the molecule `CNC(=O)OC(C)CN1c2ccccc2Sc2ccccc21` (stereo not drawn), the TGI in assay [10], in assay [1], in assay [2], in [3], in assay [4] and in [11] was above 100 µM each time. Moreover, the TGI in [5], in [6], in assay [7], in assay [8], in assay [12] and in [9] was above 100 µM throughout.

Turning to `CC(=O)C1CC2(c3ccccc3)C(=O)c3ccccc3N2O1` (stereo not drawn), the TGI in assay [1], in assay [2], in [3], in [4], in assay [5] and in [6] was above 100 µM throughout. Moreover, the TGI in assay [7], in assay [8] and in assay [9] was above 100 µM throughout.

On to `O=C(Cc1ccccc1)NN1C(=O)C(Cl)C1c1cc(Br)cc(Br)c1O` (stereo not drawn), for which the TGI was 44.8 µM in assay [1]; 10.1 µM in assay [2]; 63.4 µM in assay [3]; 34.1 µM in assay [4]; above 100 µM in assay [11]; 45.6 µM in assay [5]. For the same molecule, the TGI was 13.2 µM in [6], 98.7 µM in assay [7], 29.6 µM in assay [8] and 31.4 µM in assay [9].

Regarding `CCOC(=O)c1c(N2CCOCC2)[nH]c(=O)c(C(c2ccc(N(C)C)cc2)c2c(O)c(C(=O)OCC)c(N3CCOCC3)[nH]c2=O)c1O`, the TGI in assay [10], in [1], in assay [3], in assay [4], in assay [11] and in assay [5] was above 100 µM each time. For the same molecule, the TGI in [6], in assay [7], in [8], in assay [12] and in [9] was above 100 µM throughout.

As for `CCN(CC)CCNC(=O)c1ccccc1Nc1c(Cl)cccc1Cl`, the TGI in assay [1] was determined as 26.7 µM; in assay [2] it was 25.5 µM; in assay [3], 19 µM; in [5] it was 34.5 µM; in [6] it was 31.2 µM; in assay [8], 24.2 µM. The molecule also came in with a TGI in [9] of 20.7 µM.

For `COc1ccccc1OCc1nnc(SCC(=O)O)n1-c1ccccc1`, the TGI in [1], in assay [2], in assay [3], in assay [11], in [5] and in assay [6] was above 100 µM each time. In addition, the TGI in assay [7], in assay [8] and in [9] was above 100 µM throughout.

As to `Cc1cc(Cl)ccc1N1C(=O)C(=O)C(c2nc3ccccc3s2)/C(=N\NC(=O)c2ccccc2O)C1=O` (stereo not drawn), the TGI in [1], in assay [2], in [3], in assay [4], in [11] and in assay [5] was above 100 µM throughout. The TGI was above 21 µM in [6], above 100 µM in [7], above 100 µM in [8] and above 100 µM in [9].

Regarding `CN(C)CC1CCC(CN(C)C)C1=NO` (stereo not drawn), the TGI in assay [1] is above 100 µM; in [3], above 100 µM; in assay [4], above 100 µM; in assay [5], above 100 µM; in assay [6], above 100 µM; in [7], above 10 µM. Besides, in assay [8], the TGI is above 100 µM.

As to `CCCCCCCCCCCCCCCCCCNc1ccn(C2OC(COP(=O)(O)OCCCCCCCCCCCCCCCC)C(O)C2O)c(=O)n1` (stereo not drawn), the TGI in assay [1], in [2], in assay [3], in assay [4], in assay [11] and in [5] was above 100 µM throughout. In addition, the TGI in [6], in assay [7], in [12] and in assay [9] was above 100 µM throughout.

`CN1C(=O)NC2(O)c3ccccc3C(=O)C12O` (stereo not drawn): the TGI in assay [1], in assay [2], in [3], in [4], in assay [11] and in assay [5] was above 100 µM in each case. The TGI in assay [6], in [7] and in assay [9] was above 100 µM in each case.

For `CCC1N2CCCCC2[C@@H]2c3[nH]c4ccccc4c3CCN12` (stereo partly drawn), the TGI in [1], in assay [2], in assay [3], in [4], in assay [5] and in assay [6] was above 100 µM each time. Moreover, the TGI in [7], in assay [8] and in [9] was above 100 µM throughout.

In the case of `CSc1ccc2c(cc1=O)C(NC(=O)c1cc(O)c(OC(=O)O)c(O)c1)CCc1cc(O)c(O)c(O)c1-2` (stereo not drawn), the TGI is above 90 µM in [1]; 70.3 µM in assay [2]; 40.2 µM in [3]; 42.3 µM in assay [4]; 65.3 µM in assay [11]; 30.5 µM in [5]. In addition, the TGI in assay [6] came out at 35.6 µM; in assay [7], 36.5 µM; in assay [8], 29.1 µM; in [9], 32.9 µM.

Regarding `CCC(=O)NCC1(c2c[nH]c3ccccc23)SCCS1`, the TGI in [1], in assay [2], in [3], in [4], in assay [11] and in assay [5] was above 100 µM throughout. In addition, the TGI in assay [6], in [7], in [8] and in assay [9] was above 100 µM in each case.

Regarding `N#CC(C(=N/NC(N)=S)/C(=N\NC(N)=S)C(C#N)c1ccccc1)c1ccccc1` (stereo not drawn), the TGI in assay [1], in [2], in assay [3], in assay [4], in assay [11] and in assay [5] was above 10 µM in each case. Also, the TGI in assay [6], in assay [7] and in assay [9] was above 10 µM each time.

Turning to `CCOC(=O)NC(=O)c1cn(-c2ccc(CCOC(=O)CCCCCCCCC(=O)OCCc3ccc(-n4cc(C(=O)NC(=O)OCC)c(=O)[nH]c4=O)cc3)cc2)c(=O)[nH]c1=O`, the TGI in [1], in assay [2], in assay [3], in assay [4], in assay [11] and in assay [5] was above 100 µM each time. For the same molecule, the TGI in assay [6], in [7], in assay [8] and in assay [9] was above 100 µM throughout.

With `C#Cc1cccc(N2C(=O)CC(=P(c3ccccc3)(c3ccccc3)c3ccccc3)C2=O)c1`, the TGI is above 100 µM in assay [1]; 38.2 µM in assay [2]; above 100 µM in [3]; above 100 µM in assay [4]; above 100 µM in assay [5]; above 100 µM in assay [6]. Besides, the TGI in assay [7] was above 100 µM; in assay [8], 83.7 µM; in assay [9] it was above 100 µM.

Consider `COC(=O)C(=O)C(C(=O)C(=O)Nc1ccc([N+](=O)[O-])cc1C#N)c1nc2ccc([N+](=O)[O-])cc2[nH]c1=O` (stereo not drawn), for which the TGI in assay [1], in [2], in assay [3], in [4], in assay [11] and in [5] was above 100 µM each time. In addition, the TGI in [6], in [7] and in assay [9] was above 100 µM each time.

Turning to `CCCN(CCC)C(=O)Cc1c2n(c3ccccc13)CCCc1ccccc1-2`, the TGI in assay [1] worked out at 29.1 µM; in [2], 37.1 µM; in assay [3], 26 µM; in assay [4] it was 37.4 µM; in [11], 25.2 µM; in assay [5] it was 26.4 µM. For the same molecule, the TGI in assay [6] turned out to be 32.9 µM; in [7], 22.4 µM; in assay [8], 27.4 µM; in assay [9], 29.4 µM.

As to `O=C1c2ccccc2N2OC3C4CCC(C4)C3C12c1ccccc1` (stereo not drawn), the TGI in assay [1], in assay [2], in [3], in assay [4], in assay [5] and in assay [6] was above 100 µM each time. Further, the TGI in assay [7], in assay [8] and in [9] was above 100 µM each time.

For `C/C(CC(=O)Nc1ccc(C)cc1)=N\NC(N)=S`, the TGI in assay [1], in assay [2], in assay [3], in assay [4], in [11] and in assay [5] was above 100 µM each time. Moreover, the TGI in assay [6], in assay [7], in [8] and in assay [9] was above 100 µM in each case.

On to `COc1cc2c(cc1OC)[C@]1(O)C(=O)c3ccc4c(c3O[C@@H]1CO2)C[C@H](C(C)(C)O)O4`, for which the TGI in [1], in assay [2], in [3], in assay [4], in assay [11] and in [5] was above 100 µM throughout. The TGI in [6] and in assay [9] was above 100 µM throughout.

As to `COc1cc([C@@H]2c3cc4c(cc3[C@@H](NC(=O)c3ccc(C(C)=O)cc3)C3COC(=O)[C@@H]32)OCO4)cc(OC)c1O` (stereo partly drawn), the TGI in assay [1] was 19.5 µM; in assay [2] it was 0.912 µM; in assay [3], 6.34 µM; in assay [4], above 100 µM; in [11], 5.68 µM; in assay [5] it was 31.1 µM. The TGI in assay [6] was 29.9 µM; in assay [7], above 100 µM; in [8] it was 10.3 µM; in assay [9] it was 1.65 µM.

On to `O=c1[nH]nc2c3n[nH]c(=O)n3c3ccccc3n12`, for which the TGI in assay [1], in assay [3], in assay [4], in assay [11], in assay [5] and in [6] was above 100 µM throughout. For the same molecule, the TGI in assay [7], in [8] and in assay [9] was above 100 µM each time.

`N[C@H]1CCc2c1nc1c(c2-c2ccccc2)CC[C@@H]1N`: the TGI in [10] is 28.1 µM; in assay [1] it was 44.2 µM; in assay [2], 46.4 µM; in assay [3] it was 26 µM; in [4], 26.6 µM; in assay [11], above 100 µM. Moreover, the TGI in [5] was determined as 31.1 µM; in assay [6] it was 27.6 µM; in [7], 45.5 µM; in assay [8] it was 29.7 µM; in assay [9] it was 55.3 µM.

Regarding `CC1(Br)C(=O)NC(=O)N([C@H]2C[C@H](O)[C@@H](CO)O2)C1N=[N+]=[N-]` (stereo partly drawn), the TGI in [1], in [2], in [3], in assay [4], in assay [11] and in assay [5] was above 100 µM in each case. Besides, the TGI in assay [6], in assay [7], in [8] and in [9] was above 100 µM in each case.
